Values after ≈ are worked out from the molar mass of the structure shown. Read-outs that look alike come from different tables or passages of the source. Some results are limits rather than exact numbers.

What is called IC50 is the concentration needed to halve the response being measured. Usually MIC stands for the lowest concentration found to suppress growth. A high value points to a need for much substance. The term CC50 denotes the concentration at which the toxic effect on the cells reaches its halfway point.

Data set [1] relates to P. falciparum CQ-resistant (CQ-R) W2 strain. As to the kind of experiment: antiplasmodial drug susceptibility assay (pLDH), CQ-resistant strain. As to conditions: Plasmodium falciparum, read-out: IC50 W2 (CQ-R). Type of data set: cell-based. Here is the method:
(§1) P. falciparum cultures were carried out according to Trager and Jensen with slight modifications. The CQ-sensitive strain D10 and the CQ-resistant strain W2 were maintained at 5% hematocrit (human A-positive erythrocytes) in RPMI 1640 medium (EuroClone S.p.A, Milan, Italy) with the addition of 1% AlbuMax (Invitrogen, San Diego, California, USA), 0.01% hypoxanthine, 20 mM Hepes, and 2 mM glutamine at 37 °C in a standard gas mixture (1% O2, 5% CO2, and 94% N2). […] Drugs were placed in 96-well flat-bottomed microplates, and serial dilutions were made. Asynchronous cultures with parasitaemia of 1–1.5% and 1% final hematocrit were aliquoted into the plates and incubated for 72 h at 37 °C. Parasite growth was determined spectrophotometrically (OD650nm) by measuring the activity of the parasite lactate dehydrogenase (pLDH), as described in a modified version of Makler’s method in control- and drug-treated cultures. The antiplasmodial activity is expressed as 50% inhibitory concentrations (IC50); each IC50 value is the mean ± standard deviation of at least three separate experiments performed in duplicate.

For data set [2], the system named is C. albicans ATCC 10231. As to the kind of experiment: broth microdilution antifungal assay (MIC). Format: cell-based. The settings on record: Candida albicans, ATCC10231, 24 h, range 100–0.19 µM. Here is the method: The reference strain of Candida albicans (ATCC 10231) was used in the present study and maintained on Sabouraud Dextrose Agar (Biolife Italiana S.r.l., Milan, Italy) before the antifungal assays.
(§2) The minimum inhibitory concentrations (MICs) were determined using the microbroth dilution method in microtiter plates according to the Clinical and Laboratory Standards Institute (CLSI) guidelines. In short, microbial inocula were prepared at 0.5 McFarland in PBS and, subsequently, bacterial suspensions were diluted 1:200 in Mueller–Hinton broth (Sigma-Aldrich, St. Louis, MO, USA), while fungal inoculum was diluted 1:20 in RPMI-1640 medium (Gibco®, ThermoFisher Scientific Inc., Waltham, MA, USA), containing glucose 2%, 0.3% levo-glutamine buffered to pH 7.0 with 0.165 M 3-(N-morpholino)propanesulfonic acid (MOPS). A total of 100 µL of these microbial suspensions was introduced into a 96-well microplate and incubated with 100 µL of the compounds, two-fold serially diluted in the range of 100–0.19 µM. Positive controls (microbial suspensions in regular media), negative controls (only compounds), solvent controls (microbial suspensions incubated with DMSO dilutions), and the reference drug controls were included in the tests. The plate was incubated at 37 °C for 24 h, and subsequently the optical density at 630 nm (OD630nm) was spectrophotometrically measured. Experiments were performed in triplicate with three biological replicates. In addition to MIC, IC50 values were measured for the active compounds. The values, corresponding to the concentration of the compound giving rise to an inhibition of growth of 50%, were obtained by interpolation on dose–response curves generated by plotting the percentages of growth inhibition, relative to the positive control (set to 100% of growth), as a function of the tested concentrations (on a logarithm scale). Statistical analysis was carried out by using GraphPad Prism version 9.4.1 for Windows (GraphPad Software, San Diego, CA, USA, www.graphpad.com).
For orientation: Dilution methods test growth across graded concentrations, often in twofold steps.

Data set [3] has as its system E. coli ATCC 25923. As to the kind of experiment: broth microdilution antimicrobial assay (MIC). As to conditions: Escherichia coli, ATCC25923, 24 h, range 100–0.19 µM. Type of data set: cell-based.
Data set [4] deals with S. aureus ATCC 25923. The data set is described as follows: broth microdilution antimicrobial assay (MIC, IC50). Format: cell-based. As to conditions: Staphylococcus aureus, ATCC25923; for MIC: broth microdilution, 24 h, range 100–0.19 µM; for IC50: S. aureus ATCC 25923, 24 h, OD630, mean value with standard deviation, read-out: IC50 ATCC 25923.
From the text: (§3) Reference bacterial strains of Staphylococcus aureus (ATCC 25923) and Escherichia coli (ATCC 25922) were used in this study as Gram-positive and negative models, respectively. These reference strains were purchased from the American Type Culture Collection (ATCC, Manassas, VA, USA). Clinical isolates, identified by MALDI-TOF MS (Bruker Daltonik, GmbH, Bremen, Germany), were profiled for their antibiotic susceptibility by using the Vitek2 semiautomated system (bioMérieux, Craponne, France) and according to EUCAST (Version 12, 2022, http://www.eucast.org (accessed on 1 January 2022)). The bacterial cultures were routinely grown on 5% blood agar plates (Biolife Italiana S.r.l., Milan, Italy) and were freshly used in the antibacterial assays.
as §2

The subject of data set [5] is P. falciparum CQ-sensitive (CQ-S) D10 strain. The data set is described as follows: antiplasmodial drug susceptibility assay (pLDH), CQ-sensitive strain. Type of data set: cell-based. The settings on record: Plasmodium falciparum, read-out: IC50 D10 (CQ-S). Here is the method:
as §1

Data set [6] in a line: cell viability and proliferation assay (CCK-8/WST8). Format: cell-based. As to conditions: human, WS1 cells (human-derived fibroblasts, ATCC CRL-1502), mean value with standard deviation. Here is the method: WS1 cells (ATCC CRL-1502) were selected as a model system to investigate the effect of PTZ-quinoline hybrid compounds on human-derived fibroblasts. Briefly, cells were cultured in DMEM-High glucose supplemented with 10% fetal bovine serum (FBS) (Carlo Erba Reagents, Milan, Italy), 100 U/mL penicillin, and 100 µg/mL streptomycin at 37 °C with 5% CO2. For experiments, cells were seeded into 96-well plates at 0.7 × 10^4 cells/well, and incubated at 37 °C for 24 h. […] Cell viability was assessed by a WST8-based assay according to the manufacturer’s instructions (CCK-8, Cell Counting Kit-8, Dojindo Molecular Technologies, Rockville, MD, USA). After 48 h of incubation, culture medium was removed from each well, the monolayer was washed with PBS, and 100 µL of fresh medium containing 10 µL of CCK-8 solution was added. Following a 2 h incubation at 37 °C, the OD450nm was read, and data were expressed as the percentage of cell viability relative to the untreated controls. The CC50 was obtained on the corresponding dose–response curves generated as previously reported for IC50 values. Experiments were carried out in triplicate in three biological replicates.

The test system of data set [7] is clinical isolates of S. aureus (MRSA). As to the kind of experiment: antibiotic susceptibility profiling of clinical isolates (Vitek2, EUCAST). As to all read-outs here: key: R = Resistant; S = Susceptible; I = Intermediate. As to conditions: for Antibiotic-resistance profile, MRSA 1: clinical isolate MRSA 1; for Antibiotic-resistance profile, MRSA 2: clinical isolate MRSA 2; for Antibiotic-resistance profile, MRSA 3: clinical isolate MRSA 3; for Antibiotic-resistance profile, MRSA 4: clinical isolate MRSA 4; for Antibiotic-resistance profile, MRSA 5: clinical isolate MRSA 5. Format: cell-based, Staphylococcus aureus.
From the text: as §3

In the case of `Clc1ccc2c(N3CCN(CCCN4c5ccccc5Sc5ccccc54)CC3)ccnc2c1` [Compound 1, 10-(3-(4-(7-chloroquinolin-4-yl)piperazin-1-yl)propyl)-10H-phenothiazine], the half-maximal inhibitory concentration (IC50) in data set [1] (P. falciparum W2, 72 h, pLDH, mean value with standard deviation) is 2320 ± 1050 nM; in data set [5] (P. falciparum D10, 72 h, pLDH, mean value with standard deviation), 2520 ± 840 nM. Besides, the MIC in data set [2], in data set [3] and in data set [4] was greater than 100 µM each time. In addition, in data set [6], the CC50 at 48 h is greater than 100000 nM.
On to `CNC(C)C1CCC(N)C(OC2C(N)CC(N)C(OC3OCC(C)(O)C(NC)C3O)C2O)O1` (stereo not shown) [GEN, gentamicin], for which it took 1.03 µM (≈ 0.492 µg/mL) to inhibit growth in data set [3] (MIC). Moreover, in data set [4], the IC50 is 4000 ± 50 nM and the MIC is 6.6 µM (≈ 3.15 µg/mL). For the same compound, in data set [7], the “Antibiotic-resistance profile, MRSA 1” value is “S”; the “Antibiotic-resistance profile, MRSA 2” value is “S”; the “Antibiotic-resistance profile, MRSA 3” value was “S”; the “Antibiotic-resistance profile, MRSA 4” value is reported as “S”. Moreover, in data set [7], the “Antibiotic-resistance profile, MRSA 5” value is “S”.
In the case of `CCN(CC)CCCC(C)Nc1ccnc2cc(Cl)ccc12` (stereo not shown) [CQ, chloroquine, reference compound], the IC50 in data set [1] (W2, 72 h) stood at 420 ± 103 nM; in data set [5] (D10, 72 h), 25 ± 7 nM.
On to `CN[C@H](CC(C)C)C(=O)N[C@H]1C(=O)N[C@@H](CC(N)=O)C(=O)N[C@H]2C(=O)N[C@H]3C(=O)N[C@H](C(=O)N[C@H](C(=O)O)c4cc(O)cc(O)c4-c4cc3ccc4O)[C@H](O)c3ccc(c(Cl)c3)Oc3cc2cc(c3O[C@@H]2O[C@H](CO)[C@@H](O)[C@H](O)[C@H]2O[C@H]2C[C@](C)(N)[C@H](O)[C@H](C)O2)Oc2ccc(cc2Cl)[C@H]1O` [VA, Vancomycin], for which, in data set [7], the “Antibiotic-resistance profile, MRSA 1” value was “S”; the “Antibiotic-resistance profile, MRSA 2” value is recorded as “S”; the “Antibiotic-resistance profile, MRSA 3” value is given as “S”; the “Antibiotic-resistance profile, MRSA 4” value is “S”. In data set [7], the “Antibiotic-resistance profile, MRSA 5” value is “S”.
In data set [2], `OC(Cn1cncn1)(Cn1cncn1)c1ccc(F)cc1F` [FLC, Fluconazole, reference compound] displayed an MIC of 0.82 µM (≈ 0.251 µg/mL).
On to `CC[C@H]1OC(=O)[C@H](C)[C@@H](O[C@H]2C[C@@](C)(OC)[C@@H](O)[C@H](C)O2)[C@H](C)[C@@H](O[C@@H]2O[C@H](C)C[C@H](N(C)C)[C@H]2O)[C@](C)(O)C[C@@H](C)C(=O)[C@H](C)[C@@H](O)[C@]1(C)O` [E, Erythromycin], for which, in data set [7], the “Antibiotic-resistance profile, MRSA 3” value was “R”; the “Antibiotic-resistance profile, MRSA 4” value is “S”; the “Antibiotic-resistance profile, MRSA 5” value was “S”.
For the compound `CC1(C)S[C@@H]2[C@H](NC(=O)[C@H](N)c3ccccc3)C(=O)N2[C@H]1C(=O)O` [AMP, ampicillin, reference compound], the lowest concentration to inhibit growth in data set [3] (MIC) was 67.3 µM (≈ 23.5 µg/mL). In data set [4], the IC50 turned out to be 2590 ± 130 nM and inhibition of growth (MIC) required 4.2 µM (≈ 1.47 µg/mL).
Regarding `CN(C)[C@@H]1C(O)=C(C(N)=O)C(=O)[C@@]2(O)C(O)=C3C(=O)c4c(O)cccc4[C@@](C)(O)[C@H]3C[C@@H]12` [TE, Tetracycline], in data set [7], the “Antibiotic-resistance profile, MRSA 1” value is reported as “S”; the “Antibiotic-resistance profile, MRSA 2” value is recorded as “S”; the “Antibiotic-resistance profile, MRSA 3” value is reported as “S”; the “Antibiotic-resistance profile, MRSA 4” value was “S”. The “Antibiotic-resistance profile, MRSA 5” value in data set [7] is “S”.
Turning to Teicoplanin [TEC], in data set [7], the “Antibiotic-resistance profile, MRSA 1” value is on record as “S”; the “Antibiotic-resistance profile, MRSA 2” value is “S”; the “Antibiotic-resistance profile, MRSA 3” value is on record as “S”; the “Antibiotic-resistance profile, MRSA 4” value is given as “S”. In addition, in data set [7], the “Antibiotic-resistance profile, MRSA 5” value is on record as “S”.
For the compound `Clc1ccc2c(-n3cc(CN4c5ccccc5Sc5ccccc54)nn3)ccnc2c1` [Compound 7, 10-((1-(7-chloroquinolin-4-yl)-1H-1,2,3-triazol-4-yl)methyl)-10H-phenothiazine], the MIC in data set [2], in data set [3] and in data set [4] was greater than 100 µM throughout. Besides, the cytotoxic concentration (CC50) at 48 h in data set [6] was greater than 100000 nM.
With `Clc1ccc2c(N3CCN(CCCCN4c5ccccc5Sc5ccccc54)CC3)ccnc2c1` [Compound 2, 10-(4-(4-(7-chloroquinolin-4-yl)piperazin-1-yl)butyl)-10H-phenothiazine], the MIC in data set [2], in data set [3] and in data set [4] was greater than 100 µM each time. Besides, in data set [6], the CC50 at 48 h is greater than 100000 nM.
Take Penicillin: in data set [7], the “Antibiotic-resistance profile, MRSA 1” value was “R”; the “Antibiotic-resistance profile, MRSA 2” value is on record as “R”; the “Antibiotic-resistance profile, MRSA 3” value is “R”; the “Antibiotic-resistance profile, MRSA 4” value is reported as “R”. In addition, in data set [7], the “Antibiotic-resistance profile, MRSA 5” value is on record as “R”.
For the compound `CCC[C@@H]1C[C@@H](C(=O)N[C@@H]([C@H]2O[C@H](SC)[C@H](O)[C@@H](O)[C@H]2O)[C@H](C)Cl)N(C)C1` [CM, Clindamicyn], in data set [7], the “Antibiotic-resistance profile, MRSA 3” value is “R”; the “Antibiotic-resistance profile, MRSA 4” value is reported as “S”; the “Antibiotic-resistance profile, MRSA 5” value is recorded as “S”.
Regarding `Cc1onc(-c2ccccc2)c1C(=O)N[C@@H]1C(=O)N2[C@@H]1SC(C)(C)[C@@H]2C(=O)O` [OX, Oxacillin], in data set [7], the “Antibiotic-resistance profile, MRSA 1” value was “R”; the “Antibiotic-resistance profile, MRSA 2” value was “R”; the “Antibiotic-resistance profile, MRSA 3” value is recorded as “R”; the “Antibiotic-resistance profile, MRSA 4” value is on record as “R”. The “Antibiotic-resistance profile, MRSA 5” value in data set [7] is given as “R”.
For `C[C@H]1COc2c(N3CCN(C)CC3)c(F)cc3c(=O)c(C(=O)O)cn1c23` [LVX, Levofloxacin], in data set [7], the “Antibiotic-resistance profile, MRSA 1” value is reported as “R”; the “Antibiotic-resistance profile, MRSA 2” value is on record as “R”; the “Antibiotic-resistance profile, MRSA 3” value is reported as “R”; the “Antibiotic-resistance profile, MRSA 4” value is “R”. Besides, the “Antibiotic-resistance profile, MRSA 5” value in data set [7] is given as “R”.

Values taken from paper PMC12561106, “STOP Strategy to Inhibit P. falciparum and S. aureus Growth: Molecular Mechanism Studies on Purposely Designed Hybrids” (Antibiotics, 2025).
